{"source": "patent US12466807B2", "about": "“Salt and crystal form of a FAK inhibitor” (Amplia Therapeutics Limited, priority 2019, dated 2025)", "key": {"[1]": {"experiment": "Dynamic/gravimetric vapour sorption (DVS/GVS) hygroscopicity", "assay_type": "physicochemical", "settings": "at 90% R.H., 25° C.", "method": "Approximately 10-20 mg of sample was placed into a mesh vapour sorption balance pan and loaded into the DVS-1 dynamic vapour sorption balance by Surface Measurement Systems. The sample was subjected to a ramping profile from 40-90% relative humidity (RH) at 10% increments, maintaining the sample at each step until a stable weight had been achieved (dm/dt 0.004%, minimum step length 30 minutes, maximum step length 500 minutes) at 25° C. After completion of the sorption cycle, the sample was dried using the same procedure to 0% RH and then a second sorption cycle back to 40% RH. Two cycles were performed. The weight change during the sorption/desorption cycles were plotted, allowing for the hygroscopic nature of the sample to be determined. XRPD analysis was then carried out on any solid retained.\nApproximately 10-20 mg of sample was placed into a mesh vapour sorption balance pan and loaded into an IGASorp Moisture Sorption Analyser balance by Hiden Analytical. The sample was subjected to a ramping profile from 40-90% relative humidity (RH) at 10% increments, maintaining the sample at each step until a stable weight had been achieved (98% step completion, minimum step length 30 minutes, maximum step length 60 minutes) at 25° C. After completion of the sorption cycle, the sample was dried using the same procedure to 0% RH, and finally taken back to the starting point of 40% RH. Two cycles were performed. The weight change during the sorption/desorption cycles were plotted, allowing for the hygroscopic nature of the sample to be determined."}, "[2]": {"experiment": "Thermodynamic solubility studies", "assay_type": "physicochemical", "settings": "for solubility thermodynamic at 24 h: buffer, 22 °C, thermodynamic from solid; for HPLC Conc: ca. 22° C."}, "[3]": {"experiment": "Salt disproportionation studies", "assay_type": "physicochemical", "method": "Salt disproportionation studies were carried out as follows: • Approximately 10-20 mg of Formula I free base, L-tartrate Pattern 1 were weighed into HPLC vials. • 1 mL deionized water was then added to each vial and the vials capped and shaken at ambient temperature for 24 hours. • After this time, the samples were transferred to centrifuge tubes with nylon filters (0.22 μm) and centrifuged for approximately 15 minutes. The isolated solids were analyzed by XRPD and the filtrates analyzed by HPLC for concentration determination and the pH of all the filtrates were measured with a pH meter."}, "[4]": {"experiment": "Oral exposure (pharmacokinetics) in rats", "assay_type": "in vivo, male Sprague Dawley rats", "settings": "rat", "method": "To compare the exposure of the compound of Formula I in male Sprague Dawley rats following oral administration of the free base and L-tartrate salt at a target dose of 20 mg/kg (as free base equivalent).\nFurther details of the in-life, formulation and bioanalytical procedures together with the data analysis, are described in Appendix 1.\nIn-Life • The exposure of Formula I was studied in overnight-fasted male Sprague Dawley rats that had access to water ad libitum throughout the pre- and post-dose sampling period, and access to food was re-instated 4 h post-dose. In-life details are provided in Table A1-1. • Samples of arterial blood and total urine were collected up to 48 h post-dose. Arterial blood was collected directly into borosilicate vials (at 4° C.) containing heparin, Complete® (a protease inhibitor cocktail) and potassium fluoride to minimise potential for ex vivo degradation of Formula I in blood/plasma samples. Once collected, blood samples were centrifuged, supernatant plasma was removed and stored frozen (−80° C.) until analysis by LC-MS.\nThe extraction of the test compound from plasma samples was conducted using protein precipitation with acetonitrile. Both solution and plasma standards were freshly prepared, with each set of standards comprising at least seven different analyte concentrations. Solution standards were diluted from a stock solution (1 mg/mL in DMSO) with 50% acetonitrile in water. Plasma standards were prepared by spiking blank plasma (50 μL) with solution standards (10 μL) and the internal standard, diazepam (10 μL, 5 μg/mL).\nPlasma samples were similarly prepared, except that blank acetonitrile (10 μL) was added instead of solution standards. Protein precipitation was carried out by the addition of acetonitrile (120 μL), vortexing (20 s) and centrifugation (10,000 rpm) in a microcentrifuge for 3 minutes. The supernatant was subsequently separated and 3 μL injected directly onto the column for LC/MS analysis using conditions tabulated below. All plasma concentrations are expressed as the non-salt equivalent.\nStandard Calculations • Plasma concentration versus time data were analysed using non-compartmental methods (PKSolver Version 2.0). Standard calculations for each pharmacokinetic parameter are listed below.\n(§1) [formula] • AUCIV Area under the plasma concentration versus time profile from time zero to infinity after IV administration (reported previously: CDCO_FAK_11_031) • t1/2 Elimination half-life • λ2 Terminal elimination rate constant after IV administration • BA Oral bioavailability • AUCoral Area under the plasma concentration versus time profile from time zero to infinity after oral administration • Cmax Maximum plasma concentration observed after oral administration. • Tmax Time to achieve Cmax • Differences in pharmacokinetic parameters (t½, AUC, Cmax, Tmax and BA) between free base and L-tartrate salt were evaluated using an unpaired t-test testing for significance at α=0.05 (GraphPad Prism, version 7.01)"}, "[5]": {"experiment": "IV pharmacokinetics in rats (reported previously)", "assay_type": "in vivo, male Sprague Dawley rats", "settings": "IV 4.48 mg/kg, rat", "text": "as §1"}, "[6]": {"settings": "PO 20 mg/kg (free base equivalent), mean ± SD, n = 3, 20 mg/kg"}}, "note": "Where two headings read alike, the source gives them in different places."}
{"smiles": "COc1cc(C2CCN(C)CC2)ccc1Nc1ncc(C(F)(F)F)c(CCc2ccccc2CC(N)=O)n1", "note": "[Free base]", "values": [{"measurement": "Hygroscopicity, mass uptake (DVS/GVS)", "setting": "[1]", "result": "Uptake of 5 wt %"}, {"measurement": "Thermodynamic Solubility", "setting": "[2]; Water", "result": "<100", "unit": "µg/mL"}, {"measurement": "pH Post-24 h Slurry", "setting": "[2]; Water", "result": 5.63}, {"measurement": "solubility thermodynamic at 24 h", "setting": "[2]; pH 1, simulated gastric fluid, pH 1.0", "result": 300, "unit": "µg/mL"}, {"measurement": "solubility thermodynamic at 24 h", "setting": "[2]; pH 6.8, aqueous buffer, pH 6.8", "result": "< 100", "unit": "µg/mL"}, {"measurement": "pH Post-24 h Slurry", "setting": "[2]; pH 1.0", "result": 1.37}, {"measurement": "HPLC Conc", "setting": "[2]; pH 1.0, 24 h slurry", "result": 0.3, "unit": "mg/mL"}, {"measurement": "XRPD Result", "setting": "[2]; pH 1.0, solid after 24 h slurry, listed as Free Base", "result": "Possible HCl Salt"}, {"measurement": "XRPD Result", "setting": "[2]; pH 1.0, solid after 24 h slurry, listed as free base", "result": "possible HCl salt"}, {"measurement": "Thermodynamic Solubility", "setting": "[2]; pH 4.5", "result": 11900, "unit": "µg/mL"}, {"measurement": "pH Post-24 h Slurry", "setting": "[2]; pH 4.5", "result": 5.60}, {"measurement": "HPLC Conc", "setting": "[2]; pH 4.5, 24 h slurry", "result": 11.9, "unit": "mg/mL"}, {"measurement": "HPLC Conc", "setting": "[2]; pH 4.5, 24 h slurry, listed as Formula I free base", "result": 11.9, "unit": "mg/mL"}, {"measurement": "XRPD Result", "setting": "[2]; pH 4.5, solid after 24 h slurry", "result": "Free Base"}, {"measurement": "pH Post-24 h Slurry", "setting": "[2]; pH 6.8", "result": 7.44}, {"measurement": "HPLC Conc", "setting": "[2]; pH 6.8, 24 h slurry, listed as Free Base", "result": "<0.1", "unit": "mg/mL"}, {"measurement": "HPLC Conc", "setting": "[2]; pH 6.8, 24 h slurry, listed as free base", "result": "< 0.1", "unit": "mg/mL"}, {"measurement": "XRPD Result", "setting": "[2]; pH 6.8, solid after 24 h slurry", "result": "Alternate crystalline form"}, {"measurement": "XRPD Result", "setting": "[2]; pH 6.8, solid after 24 h slurry, listed as Formula I free base", "result": "change in XRPD pattern"}, {"measurement": "HPLC Conc", "setting": "[2]; water, 24 h slurry", "result": "<0.1", "unit": "mg/mL"}, {"measurement": "HPLC Conc", "setting": "[2]; water, 24 h slurry, listed as Formula I free base", "result": "< 0.1", "unit": "mg/mL"}, {"measurement": "XRPD Result", "setting": "[2]; water, solid after 24 h slurry", "result": "Free Base"}, {"measurement": "Water pH Post-24 h", "setting": "[3]; deionized water, 24 h, ambient temperature", "result": 5.63}, {"measurement": "XRPD Result", "setting": "[3]; solid after 24 h in deionized water", "result": "Free Base"}, {"measurement": "BA", "setting": "[4]; [6]", "result": "48.6 ± 9.2", "unit": "%"}, {"measurement": "Tmax", "setting": "[4]; [6]", "result": "5.0 ± 0.0", "unit": "h"}, {"measurement": "Adverse reactions or compound-related side effects", "setting": "[4]; PO 20 mg/kg, 48 h sampling period", "result": "No adverse reactions or compound-related side effects were observed"}, {"measurement": "% Dose in urine (unchanged Formula I)", "setting": "[4]; PO 20 mg/kg, pooled urine up to 48 h, 20 mg/kg", "result": "0.208 ± 0.24", "unit": "%"}, {"measurement": "Cmax", "setting": "[4]; male, Sprague Dawley, plasma, po, 20 mg/kg, PO 20 mg/kg (free base equivalent), mean ± SD, n = 3", "result": "934 ± 260", "unit": "nM"}, {"measurement": "half-life", "setting": "[4]; male, Sprague Dawley, plasma, po, 20 mg/kg, PO 20 mg/kg (free base equivalent), mean ± SD, n = 3, read-out: Apparent t1/2 (converted)", "result": "5.6 ± 0.1", "unit": "h"}, {"measurement": "AUC(0-inf)", "setting": "[4]; male, Sprague Dawley, plasma, po, 20 mg/kg, PO 20 mg/kg (free base equivalent), mean ± SD, n = 3, read-out: Plasma AUC0-inf", "result": "9.93 ± 1.9", "unit": "µM·h"}, {"measurement": "Tmax", "setting": "[4]; male, Sprague Dawley, plasma, po, 20 mg/kg, PO 20 mg/kg (free base equivalent), mean ± SD, n = 3, read-out: Tmax", "result": "5 to 7", "unit": "h"}, {"measurement": "N-demethylation metabolite of Formula I", "setting": "[4]; plasma and urine after PO 20 mg/kg, not quantified", "result": "detected in plasma and urine"}]}
{"smiles": "COc1cc(C2CCN(C)CC2)ccc1Nc1ncc(C(F)(F)F)c(CCc2ccccc2CC(N)=O)n1", "note": "[Formula I]", "values": [{"measurement": "% Dose in urine (unchanged Formula I)", "setting": "[5]; pooled urine up to 24 h", "result": 1.14, "unit": "%"}, {"measurement": "half-life", "setting": "[5]; male, Sprague Dawley, plasma, mean of n = 2, read-out: Apparent t1/2 (converted)", "result": 4.8, "unit": "h"}, {"measurement": "AUC(0-inf)", "setting": "[5]; male, Sprague Dawley, plasma, mean of n = 2, read-out: Plasma AUC0-inf", "result": 4.57, "unit": "µM·h"}]}
